Measurements from ChEMBL document CHEMBL3885861, “Open TG-GATES”.
Several values for one entry are separate records, joined by “and”; a condition that tells them apart may be missing. Identical values can stand only once.

Organism: Rattus norvegicus
Assay: Open TG-GATES - Regimen: Single
Format: toxicity, organism-based, Sprague-Dawley
Design: regimen Single, gender Male, age 6 weeks
Conditions: in vivo, po, route gavage; for ALT / AST / BUN / CRE / Ca / Cl / GLC / IP / K / LDH / Na / PL / RALB / TC / TG / TP / A/G / ALP / DBIL / TBIL / gamma-GTP: tissue Plasma; for APTT / Bas / Eos / Fbg / Hb / Ht / Lym / MCH / MCHC / MCV / Mono / Neu / PT / Plat / RBC / Ret / WBC: tissue Blood; for KIDNEY_L / KIDNEY_R / KIDNEY_TOTAL: tissue Kidney; for LIVER: tissue Liver
[1] = 0 mg/kg, 24 h, dose level Control

O=C1CN(/N=C/c2ccc([N+](=O)[O-])o2)C(=O)N1 [NITROFURANTOIN]
ALT [1]: 40.2 IU/L and 32.2 IU/L | AST [1]: 67 IU/L and 61.8 IU/L | BUN [1]: 15.6 mg/dL and 16 mg/dL | CRE [1]: 0.4 mg/dL | Ca [1]: 10.9 mg/dL and 11.3 mg/dL | Cl [1]: 101.4 meq/L and 105.8 meq/L | GLC [1]: 211.2 mg/dL and 198.2 mg/dL | IP [1]: 7.6 mg/dL and 9.2 mg/dL | K [1]: 4 meq/L and 4.4 meq/L | LDH [1]: 161.6 IU/L and 69.4 IU/L | Na [1]: 140 meq/L and 141 meq/L | PL [1]: 149.8 mg/dL and 148.2 mg/dL | RALB [1]: 3.2 g/dL and 3.9 g/dL | TC [1]: 76.4 mg/dL and 80.6 mg/dL | TG [1]: 110 mg/dL and 123 mg/dL | TP [1]: 5.6 g/dL and 5.5 g/dL | TERMINAL_BW (10 mg/kg, 3 h, dose level Low): 221.7 g | APTT (10 mg/kg, 3 h, dose level Low): 20.2 s | Bas (10 mg/kg, 3 h, dose level Low): 0% | Eos (10 mg/kg, 3 h, dose level Low): 1.2% | Fbg (10 mg/kg, 3 h, dose level Low): 216.6 mg/dL | Hb (10 mg/kg, 3 h, dose level Low): 13.5 g/dL | Ht (10 mg/kg, 3 h, dose level Low): 38.5% | Lym (10 mg/kg, 3 h, dose level Low): 77% | MCH (10 mg/kg, 3 h, dose level Low): 21.5 pg | MCHC (10 mg/kg, 3 h, dose level Low): 35.1% | MCV (10 mg/kg, 3 h, dose level Low): 61.3 fL | Mono (10 mg/kg, 3 h, dose level Low): 3% | Neu (10 mg/kg, 3 h, dose level Low): 17.4% | PT (10 mg/kg, 3 h, dose level Low): 12.5 s | Plat (10 mg/kg, 3 h, dose level Low): 112.9 x10_4/uL | RBC (10 mg/kg, 3 h, dose level Low): 628.8 x10_4/ul | Ret (10 mg/kg, 3 h, dose level Low): 7.4% | WBC (10 mg/kg, 3 h, dose level Low): 88.6 x10_2/uL | KIDNEY_L (10 mg/kg, 3 h, dose level Low): 1 g | KIDNEY_R (10 mg/kg, 3 h, dose level Low): 1 g | KIDNEY_TOTAL (10 mg/kg, 3 h, dose level Low): 2 g | LIVER (10 mg/kg, 3 h, dose level Low): 10.3 g | A/G (10 mg/kg, 3 h, dose level Low): 1.6 | ALP (10 mg/kg, 3 h, dose level Low): 999 IU/L | ALT (10 mg/kg, 3 h, dose level Low): 42.2 IU/L | AST (10 mg/kg, 3 h, dose level Low): 69.6 IU/L | BUN (10 mg/kg, 3 h, dose level Low): 12.2 mg/dL | CRE (10 mg/kg, 3 h, dose level Low): 0.3 mg/dL | Ca (10 mg/kg, 3 h, dose level Low): 10.8 mg/dL | Cl (10 mg/kg, 3 h, dose level Low): 101.8 meq/L | DBIL (10 mg/kg, 3 h, dose level Low): 0.076 mg/dL | GLC (10 mg/kg, 3 h, dose level Low): 194.8 mg/dL | IP (10 mg/kg, 3 h, dose level Low): 8.7 mg/dL | K (10 mg/kg, 3 h, dose level Low): 3.9 meq/L | LDH (10 mg/kg, 3 h, dose level Low): 198.6 IU/L | Na (10 mg/kg, 3 h, dose level Low): 141 meq/L | PL (10 mg/kg, 3 h, dose level Low): 141.2 mg/dL | RALB (10 mg/kg, 3 h, dose level Low): 3.3 g/dL | TBIL (10 mg/kg, 3 h, dose level Low): 0.1 mg/dL | TC (10 mg/kg, 3 h, dose level Low): 81 mg/dL | TG (10 mg/kg, 3 h, dose level Low): 67.4 mg/dL | TP (10 mg/kg, 3 h, dose level Low): 5.4 g/dL | gamma-GTP (10 mg/kg, 3 h, dose level Low): 0.8 IU/L | TERMINAL_BW (10 mg/kg, 6 h, dose level Low): 217.9 g | APTT (10 mg/kg, 6 h, dose level Low): 19.4 s | Bas (10 mg/kg, 6 h, dose level Low): 0% | Eos (10 mg/kg, 6 h, dose level Low): 1% | Fbg (10 mg/kg, 6 h, dose level Low): 222.2 mg/dL | Hb (10 mg/kg, 6 h, dose level Low): 13.6 g/dL | Ht (10 mg/kg, 6 h, dose level Low): 38.4% | Lym (10 mg/kg, 6 h, dose level Low): 76.2% | MCH (10 mg/kg, 6 h, dose level Low): 21.6 pg | MCHC (10 mg/kg, 6 h, dose level Low): 35.3% | MCV (10 mg/kg, 6 h, dose level Low): 61 fL | Mono (10 mg/kg, 6 h, dose level Low): 2.8% | Neu (10 mg/kg, 6 h, dose level Low): 18.4% | PT (10 mg/kg, 6 h, dose level Low): 12.7 s | Plat (10 mg/kg, 6 h, dose level Low): 121.4 x10_4/uL | RBC (10 mg/kg, 6 h, dose level Low): 629.8 x10_4/ul | Ret (10 mg/kg, 6 h, dose level Low): 7.6% | WBC (10 mg/kg, 6 h, dose level Low): 96.2 x10_2/uL | KIDNEY_L (10 mg/kg, 6 h, dose level Low): 1 g | KIDNEY_R (10 mg/kg, 6 h, dose level Low): 1 g | KIDNEY_TOTAL (10 mg/kg, 6 h, dose level Low): 2 g | LIVER (10 mg/kg, 6 h, dose level Low): 9.9 g | A/G (10 mg/kg, 6 h, dose level Low): 1.7 | ALP (10 mg/kg, 6 h, dose level Low): 930.6 IU/L | ALT (10 mg/kg, 6 h, dose level Low): 32 IU/L | AST (10 mg/kg, 6 h, dose level Low): 61 IU/L | BUN (10 mg/kg, 6 h, dose level Low): 11.4 mg/dL | CRE (10 mg/kg, 6 h, dose level Low): 0.4 mg/dL | Ca (10 mg/kg, 6 h, dose level Low): 10.7 mg/dL | Cl (10 mg/kg, 6 h, dose level Low): 102.8 meq/L | DBIL (10 mg/kg, 6 h, dose level Low): 0.088 mg/dL | GLC (10 mg/kg, 6 h, dose level Low): 194.2 mg/dL | IP (10 mg/kg, 6 h, dose level Low): 8.8 mg/dL | K (10 mg/kg, 6 h, dose level Low): 4.2 meq/L | LDH (10 mg/kg, 6 h, dose level Low): 175.8 IU/L | Na (10 mg/kg, 6 h, dose level Low): 140.6 meq/L | PL (10 mg/kg, 6 h, dose level Low): 140.8 mg/dL | RALB (10 mg/kg, 6 h, dose level Low): 3.5 g/dL | TBIL (10 mg/kg, 6 h, dose level Low): 0.1 mg/dL | TC (10 mg/kg, 6 h, dose level Low): 75 mg/dL | TG (10 mg/kg, 6 h, dose level Low): 77.6 mg/dL | TP (10 mg/kg, 6 h, dose level Low): 5.5 g/dL | gamma-GTP (10 mg/kg, 6 h, dose level Low): 0.6 IU/L | TERMINAL_BW (10 mg/kg, 9 h, dose level Low): 215.9 g | APTT (10 mg/kg, 9 h, dose level Low): 18.5 s | Bas (10 mg/kg, 9 h, dose level Low): 0% | Eos (10 mg/kg, 9 h, dose level Low): 1% | Fbg (10 mg/kg, 9 h, dose level Low): 226.2 mg/dL | Hb (10 mg/kg, 9 h, dose level Low): 13.3 g/dL | Ht (10 mg/kg, 9 h, dose level Low): 37.5% | Lym (10 mg/kg, 9 h, dose level Low): 79.6% | MCH (10 mg/kg, 9 h, dose level Low): 21.9 pg | MCHC (10 mg/kg, 9 h, dose level Low): 35.5% | MCV (10 mg/kg, 9 h, dose level Low): 61.8 fL | Mono (10 mg/kg, 9 h, dose level Low): 2.6% | Neu (10 mg/kg, 9 h, dose level Low): 15.8% | PT (10 mg/kg, 9 h, dose level Low): 12.7 s | Plat (10 mg/kg, 9 h, dose level Low): 112.8 x10_4/uL | RBC (10 mg/kg, 9 h, dose level Low): 607 x10_4/ul | Ret (10 mg/kg, 9 h, dose level Low): 7.3% | WBC (10 mg/kg, 9 h, dose level Low): 86.5 x10_2/uL | KIDNEY_L (10 mg/kg, 9 h, dose level Low): 1 g | KIDNEY_R (10 mg/kg, 9 h, dose level Low): 1 g | KIDNEY_TOTAL (10 mg/kg, 9 h, dose level Low): 2 g | LIVER (10 mg/kg, 9 h, dose level Low): 9.4 g | A/G (10 mg/kg, 9 h, dose level Low): 1.6 | ALP (10 mg/kg, 9 h, dose level Low): 712.8 IU/L | ALT (10 mg/kg, 9 h, dose level Low): 32.2 IU/L | AST (10 mg/kg, 9 h, dose level Low): 56.2 IU/L | BUN (10 mg/kg, 9 h, dose level Low): 10.2 mg/dL | CRE (10 mg/kg, 9 h, dose level Low): 0.3 mg/dL | Ca (10 mg/kg, 9 h, dose level Low): 10.4 mg/dL | Cl (10 mg/kg, 9 h, dose level Low): 103 meq/L | DBIL (10 mg/kg, 9 h, dose level Low): 0.068 mg/dL | GLC (10 mg/kg, 9 h, dose level Low): 197.2 mg/dL | IP (10 mg/kg, 9 h, dose level Low): 9.4 mg/dL | K (10 mg/kg, 9 h, dose level Low): 3.8 meq/L | LDH (10 mg/kg, 9 h, dose level Low): 205.2 IU/L | Na (10 mg/kg, 9 h, dose level Low): 140.6 meq/L | PL (10 mg/kg, 9 h, dose level Low): 140 mg/dL | RALB (10 mg/kg, 9 h, dose level Low): 3.4 g/dL | TBIL (10 mg/kg, 9 h, dose level Low): 0.1 mg/dL | TC (10 mg/kg, 9 h, dose level Low): 79.8 mg/dL | TG (10 mg/kg, 9 h, dose level Low): 51.2 mg/dL | TP (10 mg/kg, 9 h, dose level Low): 5.5 g/dL | gamma-GTP (10 mg/kg, 9 h, dose level Low): 0.6 IU/L | TERMINAL_BW (10 mg/kg, 24 h, dose level Low): 233.4 g | APTT (10 mg/kg, 24 h, dose level Low): 18.6 s | Bas (10 mg/kg, 24 h, dose level Low): 0%
